Assay results taken from ChEMBL document CHEMBL4334552, “Discovery of BMS-986260, a Potent, Selective, and Orally Bioavailable TGFβR1 Inhibitor as an Immuno-oncology Agent” (ACS Med Chem Lett, 2020).
pIC50: −log10 of the molar value. In brackets after ≈: the same amount, converted by molar mass.

What was measured:
[1] = Metabolic stability of compound in human liver microsomes assessed as compound remaining; format: ADME, Microsome
TGF-beta receptor type-1 [2] = molecular target: TGF-beta receptor type-1 (Homo sapiens, UniProt P36897, T204D); assay: Inhibition of His-tagged TGFBR1 kinase domain T204D mutant (unknown origin) incubated for 1 hr by HTRF analysis
[3] = Metabolic stability of compound in rat liver microsomes assessed as compound remaining after 10 mins; format: ADME, Microsome; conditions: read-out: Stability
[4] = Metabolic stability of compound in mouse liver microsomes assessed as compound remaining; format: ADME, Microsome
TGF-beta receptor type-1 [5] = molecular target: T1, TGF-beta receptor type-1 (Homo sapiens, UniProt P36897); assay: Inhibition of TGFBR1 in TGFbeta-stimulated human NHLF cells assessed as reduction in SMAD2 nuclear translocation
T1 sequence (P36897 whole entry): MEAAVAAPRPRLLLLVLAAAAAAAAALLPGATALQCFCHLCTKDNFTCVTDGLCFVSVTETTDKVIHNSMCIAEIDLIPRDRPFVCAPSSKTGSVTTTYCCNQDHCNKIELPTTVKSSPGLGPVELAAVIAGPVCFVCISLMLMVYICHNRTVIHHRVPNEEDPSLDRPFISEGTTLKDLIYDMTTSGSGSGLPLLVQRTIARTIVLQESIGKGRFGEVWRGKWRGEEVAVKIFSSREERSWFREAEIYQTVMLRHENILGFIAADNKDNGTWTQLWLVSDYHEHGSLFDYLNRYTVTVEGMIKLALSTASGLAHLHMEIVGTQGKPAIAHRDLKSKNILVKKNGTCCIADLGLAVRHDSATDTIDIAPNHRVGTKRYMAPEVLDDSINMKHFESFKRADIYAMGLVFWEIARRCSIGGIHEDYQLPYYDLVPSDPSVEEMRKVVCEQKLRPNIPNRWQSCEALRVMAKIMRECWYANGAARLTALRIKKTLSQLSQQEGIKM

[6] = Aqueous solubility of the compound at pH 6.5; format: physicochemical; conditions: buffer
TGF-beta receptor type-2 = TGF-beta receptor type-2 (Homo sapiens, UniProt P37173); assay: Inhibition of wild type His-tagged TGFBR2 kinase domain (unknown origin) incubated for 1 hr by HTRF analysis
[7] = AUC (0 to 24 hrs) in mouse at 10 mg/kg, po; format: ADME, organism-based; set-up: dose 10 mg/kg, time < 24 hr, route oral; conditions: in vivo
[8] = Solubility of compound in crystalline form at pH 6.5; format: physicochemical

TGF-beta receptor type-2, sequence (P37173 whole entry, the tested form may be a part): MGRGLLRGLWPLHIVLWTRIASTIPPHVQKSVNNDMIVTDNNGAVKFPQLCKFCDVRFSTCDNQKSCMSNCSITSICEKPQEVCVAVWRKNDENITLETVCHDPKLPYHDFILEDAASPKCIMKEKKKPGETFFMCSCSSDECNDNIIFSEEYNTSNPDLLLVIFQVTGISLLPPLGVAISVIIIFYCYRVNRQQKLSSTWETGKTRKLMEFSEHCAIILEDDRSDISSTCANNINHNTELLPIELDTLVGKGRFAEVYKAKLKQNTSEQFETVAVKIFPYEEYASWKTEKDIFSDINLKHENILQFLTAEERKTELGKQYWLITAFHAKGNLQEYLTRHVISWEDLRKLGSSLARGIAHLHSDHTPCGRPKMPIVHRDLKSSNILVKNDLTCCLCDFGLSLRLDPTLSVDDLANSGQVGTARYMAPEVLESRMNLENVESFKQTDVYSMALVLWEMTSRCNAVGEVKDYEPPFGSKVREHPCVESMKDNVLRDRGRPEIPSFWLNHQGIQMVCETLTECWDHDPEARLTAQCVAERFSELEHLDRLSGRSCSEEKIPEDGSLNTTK
TGF-beta receptor type-1 (Homo sapiens, UniProt P36897, T204D), sequence (P36897 34-503 T204D limits assumed): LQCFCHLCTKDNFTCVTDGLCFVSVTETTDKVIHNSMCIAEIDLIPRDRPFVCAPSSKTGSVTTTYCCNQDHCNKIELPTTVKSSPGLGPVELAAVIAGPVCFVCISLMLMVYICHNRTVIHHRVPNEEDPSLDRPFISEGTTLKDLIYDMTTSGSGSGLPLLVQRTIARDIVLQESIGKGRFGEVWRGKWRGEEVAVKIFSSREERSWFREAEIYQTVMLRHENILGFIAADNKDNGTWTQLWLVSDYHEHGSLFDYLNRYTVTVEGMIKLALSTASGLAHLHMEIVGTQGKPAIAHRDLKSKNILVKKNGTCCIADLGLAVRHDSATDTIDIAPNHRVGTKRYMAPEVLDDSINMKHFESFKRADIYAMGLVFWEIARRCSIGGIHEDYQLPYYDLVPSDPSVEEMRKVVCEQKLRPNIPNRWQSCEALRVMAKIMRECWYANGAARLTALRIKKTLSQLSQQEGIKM

SMILES: Cc1cccc(-c2ncn(CC(F)F)c2-c2ccc3nccn3c2)n1
- Stability [1]: 78%
- pIC50 (TGF-beta receptor type-1 [2]): 8.00 to 9.00
- remaining at 10 min [3]: 31%
- Stability [4]: 54%
- pIC50 (TGF-beta receptor type-1 [5]): 7.05

SMILES: N#Cc1cnc2ccc(-c3c(-c4ccc(F)cc4)ncn3CC(F)F)nn12
- Stability [1]: 75%
- solubility [6]: Insoluble
- remaining at 10 min [3]: 96%
- pIC50 (TGF-beta receptor type-2): < 4.82
- Stability [4]: 89%

SMILES: Cc1cccc(-c2ncn(CC(F)F)c2-c2ccc3ncc(C(N)=O)n3c2)n1
- Stability [1]: 97%
- AUC(0-t) at 24 h [7]: 2 µM·h
- remaining at 10 min [3]: 74%
- Stability [4]: 65%

SMILES: NC(=O)c1cnc2ccc(-c3c(-c4ccc(F)cc4)ncn3CC(F)F)nn12
- Stability [1]: 100%
- AUC(0-t) at 24 h [7]: 28 µM·h
- remaining at 10 min [3]: 100%
- Stability [4]: 100%

SMILES: N#Cc1cnc2ccc(-c3c(-c4ccc(F)cc4)ncn3CCO)nn12
- Stability [1]: 93%
- remaining at 10 min [3]: 100%
- solubility [8]: 138 µg/mL (≈ 396 µM)
- pIC50 (TGF-beta receptor type-2): < 4.82
- Stability [4]: 86%
